Laboratory results: PubChem BioAssay AID2305 (GlaxoSmithKline (GSK), 2010)
pIC50: −log10 of the molar value. Where a SMILES comes first, the peptide text is derived from it. The star is where a group is joined. Boc = CC(C)(C)OC(=O)*

Tested on: P. falciparum 3D7 growth, pLDH absorbance
Assay: blood-stage malaria parasite growth potency – strain 3D7, dose response (AID 2305)

| Structure (SMILES) | pIC50 |
| --- | --- |
| CC1CN(c2ccc(C(=O)NCC3CC3)cc2NC(=O)OCc2ccccc2)CC(C)O1 (centres undefined) | 5.89 |
| Cc1cccc2[nH]c(-c3cccc(-c4cccc(CNCCc5cccn5C)c4)c3)nc12 | 6.14 |
| CCN(CC)CCCC(C)Nc1c(-c2ccc(Br)cc2)cnc2ccccc12 (centres undefined) | 6.15 |
| Cc1cccc2[nH]c(-c3ccc(-c4ccc(CNCCNC(=O)c5ccnn5C)cc4)s3)nc12 | 6.51 |
| CN1CCCC1CCCOC(=O)c1ccc(N)cc1 (centres undefined) | 6.04 |
| O=C(NC1CCCCC1)N(Cc1ccc(-c2cccc(CNC3CCCC3)c2)cc1)C1CCN(Cc2ccccc2)CC1 | 6.11 |
| O=S(=O)(c1cc(Cl)sc1Cl)N(CCC(O)(C(F)(F)F)C(F)(F)F)Cc1cccc(O)c1 | 6.13 |
| COc1cccc(O)c1CNCC(O)c1cccc(C(F)(F)F)c1 (centres undefined) | 6.02 |
| CCCc1cc2c3c(N)nc(N)nc3ccc2n1CC | 7.30 |
| N#Cc1cccc(C(=O)Nc2cccc(-c3cccc(CN4CCNCC4)c3)c2)c1 | 6.02 |
| O=C(NCc1cccs1)[C@H](Cc1ccccc1)Nc1ccnc(NCCc2ccc(F)cc2)n1 | 5.84 |
| Nc1ncc(-c2cn[nH]c2)cc1-c1nc2ncc(Cl)cc2[nH]1 | 6.04 |
| C[C@H](NC(=O)c1c(CN2CCC(N3CCCCC3)CC2)c(-c2ccccc2)nc2cc(O)ccc12)C1CCCCC1 | 6.12 |
| Cc1ccc(C)c(NC(=O)Nc2ccc(Nc3nc(C)cc(N4CCOCC4)n3)cc2)c1 | 6.01 |
| COC(=O)CC[C@H](NC(=O)[C@H](C)NC(=O)OC(C)(C)C)C(=O)OC (Boc-Ala-Glu(OMe)-OMe) | 6.09 |
| Cc1cc(C2CCN(CCCCNC(=O)c3ccc(-c4ccc(C#N)cc4)cc3)CC2)c(C)cc1OCCO | 6.09 |
| CCC[C@@H]([C@@H](CC1CCCCC1)C(=O)N[C@H](C(=O)Nc1nccs1)[C@H](C)O)N(O)C=O | 6.82 |
| CNc1ccc(CNCc2ccc(-c3ccc(-c4nc5ccc(C(F)(F)F)cc5[nH]4)cc3)cc2)cc1 | 6.77 |
| Fc1ccccc1COc1ccc(Nc2ncnc3ccc(-c4nnc(C(F)(F)F)o4)cc23)cc1Cl | 6.14 |
| Cc1ccc(-c2ccn(Cc3cccc(OCc4ccccc4)c3)n2)cn1 (tested in a mixture with another compound) | 5.93 |
| O=C(Nc1ccccc1)N(Cc1ccc(-c2cccc(CNCc3ccc4c(c3)OCO4)c2)cc1)C1CCN(Cc2ccccc2)CC1 | 6.55 |
| COc1ccc(-n2ccnc2SCC(=O)Nc2cc(C(F)(F)F)ccc2Cl)c(OC)c1 | 7.40 |
| COc1ccc(Nc2nccc(N3CCC(NC(=O)Nc4cccc(C(C)=O)c4)C3)n2)cc1 (centres undefined) | 6.09 |
| Cc1nc(N)nc(N)c1-c1cc(Cl)c(N)c(Cl)c1 | 6.10 |
| OC(CNCc1ccccc1OC(F)F)c1cccc(C(F)(F)F)c1 (centres undefined) | 6.12 |

| Structure (SMILES) | pIC50 |
| --- | --- |
| Cc1ccc(C)c(Cn2ccc3nc(N)nc(N)c32)c1 | 6.52 |
| FC(F)(F)c1ccc(CSc2ccc3nnc(-c4ccccn4)n3n2)cc1 | 6.09 |
| N#CN1CC[C@H](CS(=O)(=O)c2cccc(Br)c2)C1 | 6.06 |
| CC(C)CNC(=O)c1cncc(-c2ccc(CN(C)C3CCN(C)CC3)cc2)c1 | 6.06 |
| CCOCCCNc1nc2cc(OC)c(OC)cc2c2nc(-c3ccccc3)nn12 | 6.68 |
| CCNc1cc(C(=O)N[C@@H](Cc2ccccc2)[C@H](O)CNC(C)(C)CSCC(C)C)cc(N2CCCC2=O)c1 | 6.59 |
| O=C(CCCCCCc1ccccc1)Nc1ccc2nc3c(c(NCc4ccccc4)c2c1)CCCC3 | 6.44 |
| O=C1OC2(CN1CC1CCN(Cc3ccc(O)cc3Cl)C1)c1ccccc1-c1ccccc12 (centres undefined) | 5.93 |
| COc1ccccc1N1CCN(C(C(=O)NCc2ccc(C)cc2)c2ccc(C)cc2)CC1 (centres undefined) | 6.03 |
| NC1CCN(Cc2cccc(-c3ccc(-c4nc5ccc(F)cc5[nH]4)cc3)c2)C1 (centres undefined) | 6.22 |
| CCCCCCCC1CC(CC(=O)Nc2ccnc3ccc(OC)cc23)CN1 (centres undefined) | 6.29 |
| Fc1cccc(COc2ccc(Nc3ncnc4cc(/C=C/[C@@H]5CCCN5)sc34)cc2Cl)c1 | 6.23 |
| COc1c(C2CCN(CCCCNC(=O)c3ccc(-c4ccc(Cl)cc4)cc3)CC2)ccc2c1C(C)(C)CCC2(C)C | 6.11 |
| CCCCc1ccc(-c2ccc3[nH]c(C)c(Br)c(=O)c3c2)cc1 | 6.96 |
| c1ccc(CSC2=NNC(c3ccccn3)S2)cc1 (centres undefined) | 5.83 |
| CN1CCN(c2ccc3nc(-c4ccc(Cc5cc(Cl)ccc5OCc5ccccc5)o4)[nH]c3c2)CC1 | 6.09 |
| COc1ccc(-c2ccc([N+](=O)[O-])cc2C(=O)NCC(C)Oc2ccc(C(F)(F)F)cc2)cc1 (centres undefined) | 6.26 |
| CCCCN=C(N)c1ccc(OCCCCCOc2ccc(C(N)=NCCCC)cc2)cc1 | 6.96 |
| COc1ccc(COc2cc(NCCCN)nc3ccccc23)cc1 | 5.89 |
| CC[C@H](NC(=O)c1c(CCCN2CCN(c3ccccc3)CC2)c(-c2ccccc2)nc2cc(O)ccc12)c1ccccc1 | 6.11 |
| CN(C)CCCOc1cccc(NC(=O)Nc2ccc(-c3ccccc3)cc2)c1 | 6.06 |
| O=C(Nc1cccc(-c2cccc(-c3nc4ccccc4[nH]3)c2)c1)c1ccncc1 | 6.32 |
| CN(CCON1C(N)=NC(N)=NC1(C)C)c1ccccc1 | 7.70 |
| Cc1cccc2[nH]c(-c3ccc(-c4ccc(CN5CCC(C(N)=O)CC5)cc4)cc3)nc12 | 6.03 |
| O=C(Nc1ccsc1)Nc1cccc(-c2cccc(-c3nc4ccc(F)cc4[nH]3)c2)c1 | 6.70 |

| Structure (SMILES) | pIC50 |
| --- | --- |
| COc1ccc(C(=O)N2CCc3cc4nccc(N5CCN6CCC[C@H]6C5)c4cc32)cc1 | 6.02 |
| CCCC(=O)c1c(O)c2ccccc2oc1=O | 6.59 |
| Cc1ccc(CNC(=O)[C@H](CCCN)Nc2nc(NCC3CCCCC3)ncc2C)cc1 | 6.00 |
| COc1cc2nc(NCCc3ccccc3)nc(N(C)Cc3ccccc3)c2cc1OC | 6.08 |
| COc1ccc(-c2ccc(CNCc3ccsc3)cc2)cc1S(=O)(=O)NCCN1CCCC1 | 6.10 |
| CCN(CC)CCNC(=O)c1ccc(N=Cc2c(O)[nH]c3ccc(S(=O)(=O)Cc4c(Cl)cccc4Cl)cc23)cc1 | 6.08 |
| CCOc1ccc2c(c1)N(C(=O)C=Cc1ccccc1)C(C)(C)c1ssc(=S)c1-2 | 5.94 |
| Cc1nc(-c2cccc(C(=O)NC3CCC(CCN4CCc5ccc(-c6cccnc6)cc5CC4)CC3)c2)no1 (centres undefined) | 6.12 |
| COc1ccc([N+](=O)[O-])cc1N(Cc1ccccc1-c1ccccc1)S(=O)(=O)c1ccc(C(F)(F)F)cc1 | 6.11 |
| COc1ccc2ncc(F)c(CCN3CC[C@H](NC(=O)c4ccc5c(n4)NC(=O)CS5)[C@H](O)C3)c2n1 | 6.02 |
| COc1ccccc1CNC(=O)c1cc(C2CC2)nc2c1cnn2C(C)C | 5.99 |
| Cc1cc(NC(=O)c2cccs2)ccc1OC1CCN(Cc2ccc(F)cc2)CC1 | 6.32 |
| CC(C)(C)c1ccc(NC(=O)N[C@@H]2CCN(c3ccnc4ccccc34)C2)cc1 | 6.46 |
| COc1cc(Br)c(S(=O)(=O)n2cc(CN3CCC(N)CC3)c3cc(Cl)ccc32)cc1OC | 6.00 |
| CCN(CC)CCN1C(=O)c2oc3ccc(F)cc3c(=O)c2C1c1cccc(Cl)c1 (centres undefined) | 6.28 |
| Nc1nc(N)c2c(ccc3nn(C4CCCC4)cc32)n1 | 6.54 |
| COc1cc(F)c2ncc(Cl)c(C(O)CN3CCC(NC(=O)c4ccc5c(c4)NC(=O)CS5)CC3)c2c1 (centres undefined) | 6.17 |
| Cc1cccc2[nH]c(-c3cccc(-c4ccc(NC(=O)Cc5cnc[nH]5)cc4)c3)nc12 | 6.16 |
| Cc1cc(N[C@@H](C)C(=O)Nc2ccccc2)nc(NCCc2ccc(F)cc2)n1 | 5.95 |
| COc1c(F)ccc2ncc(Cl)c(CCN3CCC(NCc4ccc5c(n4)NC(=O)CS5)CC3)c12 | 6.27 |
| COC(C(=O)OCCC1CCCN1C)(c1ccccc1)c1ccccc1 (centres undefined) | 6.01 |
| COCCNC(=O)C1CCN(C(c2ccc(Cl)cc2)c2ccc(Cl)cc2)CC1 | 6.26 |
| CCOc1ccccc1C=CC(=O)Nc1ccc2nc(N3CCN(C)CC3)cc(C)c2c1 | 6.57 |
| Cc1sc2nc(CSc3ccccc3)nc(N3CCN(CC(=O)NC4CC4)CC3)c2c1C | 6.34 |
| CC(C)CCNC(=O)C1Cc2c([nH]c3cc(Br)ccc23)C2(CCN(Cc3ccccc3)CC2)N1 (centres undefined) | 6.10 |

| Structure (SMILES) | pIC50 |
| --- | --- |
| COC(=O)c1ccc(NC(=O)Nc2ccc(Cn3ncc(N4CCCNCC4)c(Cl)c3=O)cc2)cc1 | 6.22 |
| CC(C)COc1ccc(Cl)cc1Cc1ccc(-c2nc3ccc(F)cc3[nH]2)o1 | 6.07 |
| CCNC(=O)c1cc(S(=O)(=O)N2CCN(c3ccccn3)CC2)cs1 | 6.06 |
| Cc1cnc(-c2ccc(NC(=O)c3coc4ccc(N5C[C@@H](C)N(C)[C@@H](C)C5)cc34)cc2)o1 | 6.19 |
| O=C1C(c2ccccc2)=C(Nc2ccc([N+](=O)[O-])cc2)c2ccccc21 | 6.06 |
| Cc1[nH]c(C)c(-c2ccc(-c3ccccc3)nc2)c(=O)c1Br | 6.18 |
| Cc1nc2ccc3ccc(CNc4ccc(C(=O)N[C@@H](CCC(=O)O)C(=O)O)cc4)cc3c2c(=O)[nH]1 | 6.74 |
| O=C(NC1CCN(c2ccnc3cc(Cl)ccc23)C1)c1ccc(F)cc1 (centres undefined) | 6.72 |
| COc1ccc2nccc([C@@H](O)CN3CCC(NC(=O)C(c4cc5ccccc5o4)N4CCN(c5ccc(F)cc5)CC4)CC3)c2c1 (some centres undefined) | 6.70 |
| COc1c(Br)cc(Br)cc1C(C)=O | 6.00 |
| c1cc(-c2ccc(CN3CCCCC3)cc2)cc(-c2nc3ccccc3[nH]2)c1 | 6.24 |
| COC(=O)c1ccc2nc(-c3ccc(/C=C/C(=O)NCc4ccc(Cl)c(Cl)c4)cc3)[nH]c2c1 | 5.87 |
| CC(=O)Nc1ccc(CN2CCC(CNC(=O)c3cc(-c4cccc(Cl)c4)cs3)C2)cc1 (centres undefined) | 5.95 |
| CCc1cc([C@H]2O[C@@H](n3cnc4c(NCC(c5ccccc5)c5ccccc5)nc(NCCNc5ccccn5)nc43)[C@H](O)[C@@H]2O)on1 | 6.05 |
| CN(C)C[C@H](O)[C@@H](c1ccccc1)c1ccc(Cl)cc1 | 7.30 |
| O=C(Nc1cc(Cl)ccc1-n1cncn1)C1(c2ccccc2)CC1 | 6.35 |
| CCNC(=O)Nc1ccc(N(C)c2ccnc(NC3CC3)n2)cc1 | 6.10 |
| CCCCN1CCN(c2cc(NS(=O)(=O)c3ccc(C(=O)Nc4ccc(C(F)(F)F)cc4)cc3)ccc2OC)CC1 | 6.18 |
| Nc1nc(-c2ccccn2)nc(-n2nc(-c3cccc(C(F)(F)F)c3)cc2N)n1 | 5.98 |
| O=C(C1CC1)N1c2ccccc2CCc2ccccc21 | 6.08 |
| COc1ccccc1-n1ccnc1SCC(=O)Nc1cccc(C(F)(F)F)c1 | 6.80 |
| CCCCC/C=C/C(=O)NC1CCC(CN2CCC(c3c[nH]c4ccccc34)CC2)CC1 (centres undefined) | 6.01 |
| O=C(N[C@H]1CCN(Cc2ccc(OCCCN3CCCCC3)cc2)C1)c1ccc2ccccc2c1 | 6.12 |
| Cc1ccc(CC(C)NC[C@H](O)c2cccc(Cl)c2)cc1 (some centres undefined) | 6.07 |
